From US20250281465A1, “MOLECULES THAT ENHANCE EXTRACELLULAR VESICLE RELEASE” (priority 2022, published 2025)
Entries after “also recorded” stand apart in the source; their conditions may differ.

Tests used:
[1] = tested on: NF-κB; assay: NF-κB-bla THP-1 HTS; format: cell-based, human; settings: 10 μM, 5 hours
Description: The robotic HTS using the three reporter cells were performed using 384-well plates by the SelectScreen™ service, Thermo Fisher Scientific (Madison, WI) (Pu et al., 2012; Chan et al., 2017b; Shukla et al., 2018). For HTS using NF-κB-bla and ISRE-bla THP-1 cells, LPS (100 ng/ml) and human IFN-α (50 nM) were used as the positive controls, respectively, while 0.5% DMSO was used as vehicle (Veh). The cells were incubated with compounds (10 μM) for 5 hours, and LiveBLAzer™ FRET BIG substrate (CCF4-AM) mixture was added. Fluorescence was measured at an excitation wavelength of 405 nm, and emission wavelengths of 465 and 535 nm. The background values were subtracted from the raw values (cell-free wells at the same fluorescence wavelength). Emission ratios were calculated by dividing background-subtracted values from em1ss1on wavelength of 465 nm by those from emission wavelength of 535 nm. The response ratio (RR) was calculated as follows (emission ratio of a test well)/(average emission ratio of wells with Veh). Further, for comparison of activity, “% activation” for each compound was computed within the plate as 100×(compound RR−average Veh RR)/(average LPS RR−average Veh RR).

[2] = tested on: THP-1 cells; assay: Intracellular Ca2+ influx screening (Fura-2) in THP-1 cells; format: cell-based, human; settings: hit candidate compounds 10 μM, 25 minutes, vs vehicle control (DMSO)
Description: FIGS. 1A-1D. Intracellular Ca^2+ influx screening of 84 HTS hit candidate compounds. (A) THP-1 cells were loaded with the ratiometric Ca^2+ indicator, Fura-2, and treated with lonomycin (ION, 1 μM), Thapsigargin (1 μM), or 84 hit candidate compounds (10 μM) for 25 minutes. Data are presented as the area under the curve (AUG) of OD340/380 ratios corresponding to the intracellular Ca^2+ kinetics. The baseline-subtracted AUG was calculated using GraphPad Prism (GraphPad Software, San Diego, CA). (B) Ca^2+ mobilization by compound #634. mBMDCs were loaded with the ratiometric Ca^2+ indicator, Fura-8, and treated with ION (1 μM), or #634 (2 and 10 μM) for 25 minutes. The dashed line indicates the timing of compounds added. The data shown are representative of three independent experiments showing similar results. (C) Ca^2+ add-back assay. Fura-8-loaded mBMDC were treated with ION (1 μM), or compound #634 (2 μM, 10 μM) for 15 minutes in the absence of extracellular Ca^2+, and then Ca^2+ (final 1.8 mM) was added at 15 minutes. Data shown are representative of three independent experiments showing similar results. (D) C57BL/6 mice (n=5/group) were intramuscularly immunized with ovalbumin (OVA, 20 μg/mouse) adjuvanted with compound #634 (200 nmol/mouse), or Veh (10% DMSO) on days 0 and 21 and bled on day 28. OVA-specific IgGI and IgG2c levels in sera were determined by ELISA. **p<0.01, ***p<0.001, ns (not significant) by KruskalWallis tests with Dunn's post hoc test vs. Veh.
FIGS. 18A-18C. Compound 634 induces intracellular Ca^2+ levels in mBMDCs. […] The time-response pattern of intracellular Ca^2+ levels was recorded for 25 minutes. AUC of OD340/380 ratios corresponds to the intracellular Ca^2+ kinetics, and the baseline-subtracted AUC was calculated by GraphPad Prism. […]
FIGS. 24A-24B. […] The time-response pattern of intracellular Ca^2+ levels was recorded with a plate reader for 25 minutes. (A) The AUC of OD340/380 ratios corresponds to the intracellular Ca^2+ kinetics and the baseline-subtracted AUC was calculated by GraphPad Prism (FIG. 36). […]

[3] = tested on: mBMDCs; assay: Cell viability / cytotoxicity in mBMDCs (MTT); format: cell-based, mouse; settings: mBMDCs, Example 2 clustered hits
Description: FIGS. 30A-30B. […] After 48 hours incubation, cell viability was determined by MTT assay.
mBMDCs (10^5 cells/200 μL/well) were treated with 10 and 5 μM of a test compound in 96-well plates overnight. After 18 hours of drug treatment, MTT (0.5 mg/ml) was added to each well. The cells were lysed after 6-8 hours incubation, and absorbance values at 570 and 650 nm were measured. PrestoBlue reagent (#A13261, Thermo Fisher Scientific) was used for cell viability assay in CD63 HTS as described earlier.
Cell viability assay. mBMDCs (2×10^6 cells/200 μL/well in RPMI1640 supplemented with dialyzed 10% FBS, or 1.5×10^6 cells/200 μL/well in RPMI1640 supplemented with 10% exosome depleted FBS) were treated with 10 μM of each test compound in 96-well plates. After 46-48 hours of compound treatment, MTT (0.5 mg/mL) was added to each well. The cells were lysed after overnight incubation, and absorbance values at 570 and 650 nm were measured.

[4] = tested on: mBMDCs; assay: EV release from mBMDCs (differential ultracentrifugation, MRPS); settings: 10 μM, 46-48 h, vs Veh

SMILES: COC(=O)c1sc(-c2cccs2)cc1NS(=O)(=O)c1ccsc1C(=O)OC [#504]
- NF-κB activity (primary HTS) [1]: much lower NF-κB inducing activity
- intracellular Ca^2+ increase (Fura-2 assay) [2]: higher intracellular Ca^2+ increase than vehicle control; also recorded: potent in calcium Fura-2 assay
- MTT assay values (cell viability) [3]: higher MTT values
- number of EV particles released in the culture supernatant [4]: low
